Values of other authors in patent US11285134B2, “Presbyopia treatments” (Allergan, Inc., priority 2018, dated 2022).
Like-named read-outs stand apart in the source and are kept apart here.

Test system: patients with glaucoma
Conditions: 1-week treatment

What does the source list for `CC[C@@H]1C(=O)OC[C@@H]1Cc1cncn1C` [pilocarpine]?
mean percent fall in IOP from baseline (1% dose strength): 17.5%; mean percent fall in IOP from baseline (4% dose strength): 26.8%; mean percent fall in IOP from baseline (8% dose strength): 29.1%
